3 compounds from ChEMBL document CHEMBL5537201, “Discovery of Unique Bis-Substituted Aromatic Amide Derivatives as Novel Highly Potent Antibiotics for Combating Methicillin-Resistant Staphylococcus aureus (MRSA)” (J Med Chem, 2024) can be followed below.

SMILES strings stand for the structures. Converted amounts (≈) assume the structure as drawn. The source made the active and inactive calls. The rule behind the calls is not given here.

The test system of series [1] is Staphylococcus aureus. The series is described as follows: Antimicrobial activity against Staphylococcus aureus ATCC6538 assessed as reduction in bacterial growth incubated for 24 hrs by two-fold broth dilution method. Format: functional. (In general: In broth dilution the organism is exposed to a series of concentrations in liquid medium.)
For series [2], the system named is Staphylococcus aureus. The series is described as follows: Antimicrobial activity against Staphylococcus aureus N315 assessed as reduction in bacterial growth incubated for 24 hrs by two-fold broth dilution method. Format: functional.
The subject of series [3] is Streptomyces albus. Briefly: Antimicrobial activity against Streptomyces albus SHBC D11158 assessed as reduction in bacterial growth incubated for 24 hrs by two-fold broth dilution method. The class given is functional.
Series [4] has as its system Staphylococcus hominis. The series is described as follows: Antimicrobial activity against methicillin-resistant Staphylococcus hominis assessed as reduction in bacterial growth incubated for 24 hrs by two-fold broth dilution method. The class given is functional.
Series [5] relates to Staphylococcus aureus. The series is described as follows: Bactericidal activity against Staphylococcus aureus ATCC6538 assessed as reduction in survival rate at 5 to 10 times MIC measured after 30 to 120 mins by colony counting method relative to control. The class given is functional. The conditions noted are these: time 30-120 min.
Series [6] in a line: Hemolytic activity in rabbit Red blood cell assessed as hemolysis incubated for 1 hr by two-fold microdilution method. The class given is toxicity, cell-based, Oryctolagus cuniculus, Erythrocyte. Conditions: red blood cells (erythrocytes).
Series [7] in a line: Selectivity index, ratio of HC50 for rabbit Red blood cell to MIC for Staphylococcus aureus ATCC6538. The class given is toxicity. The conditions noted are these: red blood cells (erythrocytes), read-out: Selectivity Index.
Series [8] can be described thus: Cytotoxicity against African green monkey Vero E6 cells assessed as reduction in cell viability measured after 24 hrs by CCK-8 method. The class given is toxicity, cell-based, Chlorocebus sabaeus, Vero C1008. In general terms: Tetrazolium assays rely on reduction of a dye to a coloured formazan, in cell work by metabolically active cells.
A short description of series [9]: Selectivity index, ratio of IC50 for African green monkey Vero E6 cells to MIC for Staphylococcus aureus ATCC6538. The conditions noted are these: read-out: Selectivity Index. Format: toxicity.
Series [10] concerns HeLa. The series is described as follows: Cytotoxicity against human HeLa cells assessed as reduction in cell viability measured after 24 hrs by CCK-8 method. Format: functional, cell-based.
A short description of series [11]: Cytotoxicity against human HaCaT cells assessed as reduction in cell viability measured after 24 hrs by CCK-8 method. Format: toxicity, cell-based.
Series [12] is described as follows: Cytotoxicity against HEK293 cells assessed as reduction in cell viability measured after 24 hrs by CCK-8 method. Format: toxicity, cell-based. The conditions noted are these: human.
Series [13] relates to A549. Briefly: Cytotoxicity against human A549 cells assessed as reduction in cell viability measured after 24 hrs by CCK-8 method. Format: functional, cell-based. Conditions: A549, 24 h.
Series [14] deals with Staphylococcus aureus. The series is described as follows: Antimicrobial activity against methicillin resistant Staphylococcus aureus clinical isolate MRS1 assessed as reduction in bacterial growth incubated for 24 hrs by two-fold broth dilution method. The class given is functional.
Series [15] has as its system Staphylococcus aureus. Briefly: Antimicrobial activity against methicillin resistant Staphylococcus aureus clinical isolate MRS23 assessed as reduction in bacterial growth incubated for 24 hrs by two-fold broth dilution method. The class given is functional.
The subject of series [16] is Staphylococcus aureus. Briefly: Antimicrobial activity against methicillin resistant Staphylococcus aureus clinical isolate MRS70 assessed as reduction in bacterial growth incubated for 24 hrs by two-fold broth dilution method. Format: functional.
Series [17] has as its system Staphylococcus aureus. The series is described as follows: Antimicrobial activity against methicillin resistant Staphylococcus aureus clinical isolate MRS207 assessed as reduction in bacterial growth incubated for 24 hrs by two-fold broth dilution method. Format: functional.
In series [18] the test system is Staphylococcus aureus. The series is described as follows: Antimicrobial activity against methicillin resistant Staphylococcus aureus clinical isolate MRS108 assessed as reduction in bacterial growth incubated for 24 hrs by two-fold broth dilution method. The class given is functional.
In series [19] the test system is Staphylococcus aureus. Briefly: Antimicrobial activity against methicillin resistant Staphylococcus aureus clinical isolate MRS152 assessed as reduction in bacterial growth incubated for 24 hrs by two-fold broth dilution method. The class given is functional.
Series [20] concerns Staphylococcus aureus. Briefly: Antimicrobial activity against methicillin resistant Staphylococcus aureus clinical isolate MRS200 assessed as reduction in bacterial growth incubated for 24 hrs by two-fold broth dilution method. The class given is functional.
Series [21] has as its system Staphylococcus aureus. Briefly: Antimicrobial activity against methicillin resistant Staphylococcus aureus clinical isolate MRS273 assessed as reduction in bacterial growth incubated for 24 hrs by two-fold broth dilution method. The class given is functional.
For series [22], the system named is Staphylococcus aureus. The series is described as follows: Antimicrobial activity against methicillin resistant Staphylococcus aureus clinical isolate MRS153 assessed as reduction in bacterial growth incubated for 24 hrs by two-fold broth dilution method. The class given is functional.
The test system of series [23] is Staphylococcus aureus. Briefly: Antimicrobial activity against methicillin resistant Staphylococcus aureus clinical isolate MRS84 assessed as reduction in bacterial growth incubated for 24 hrs by two-fold broth dilution method. Format: functional.
The test system of series [24] is Staphylococcus aureus. Briefly: Antimicrobial activity against methicillin resistant Staphylococcus aureus clinical isolate MRS121 assessed as reduction in bacterial growth incubated for 24 hrs by two-fold broth dilution method. Format: functional.
The test system of series [25] is Staphylococcus aureus. The series is described as follows: Antimicrobial activity against methicillin resistant Staphylococcus aureus clinical isolate MRS97 assessed as reduction in bacterial growth incubated for 24 hrs by two-fold broth dilution method. Format: functional.
Series [26] deals with Staphylococcus aureus. The series is described as follows: Induction of drug resistance in Staphylococcus aureus ATCC6538 assessed as change in MIC measured after 10 passages. Format: functional.
Series [27] deals with Staphylococcus aureus. The series is described as follows: Bactericidal activity against methicillin-resistant Staphylococcus aureus clinical isolate MRS1 at 5 ug/ml measured upto 150 mins. Format: functional, organism-based. The conditions noted are these: dose 5.0 µg/ml.
In series [28] the test system is Staphylococcus aureus. The series is described as follows: Bactericidal activity against methicillin-resistant Staphylococcus aureus clinical isolate MRS153 at 5 ug/ml measured upto 150 mins. Format: functional, organism-based. The conditions noted are these: dose 5.0 µg/ml.
Series [29] has as its system Staphylococcus aureus. Briefly: Bactericidal activity against methicillin-resistant Staphylococcus aureus clinical isolate MRS97 at 5 ug/ml measured upto 150 mins. The conditions noted are these: dose 5.0 µg/ml. Format: functional, organism-based.

Usually MIC stands for the lowest concentration found to suppress growth. For orientation: HC50 means the concentration that lyses half of the red blood cells. As a reminder, the IC50 is the concentration that gives 50% inhibition. For `O=C(CCC(F)(F)F)N(Cc1cc2ccccc2s1)c1cc(-c2ccco2)ccc1O`, the MIC in [1] came to 2 µg/mL (≈ 4.49 µM); in [2], 1 µg/mL (≈ 2.24 µM); in series [3] it was 16 µg/mL (≈ 35.9 µM); in [4] it was 16 µg/mL (≈ 35.9 µM); in series [14] it was 6 µg/mL (≈ 13.5 µM); in [15], 2 µg/mL (≈ 4.49 µM). The minimum inhibitory concentration (MIC) is 6 µg/mL (≈ 13.5 µM) in series [16]; 8 µg/mL (≈ 18 µM) in series [17]; 6 µg/mL (≈ 13.5 µM) in series [18]; 6 µg/mL (≈ 13.5 µM) in [19]; 6 µg/mL (≈ 13.5 µM) in series [20]; 3 µg/mL (≈ 6.73 µM) in series [21]. The MIC was 2 µg/mL (≈ 4.49 µM) in [22], 3 µg/mL (≈ 6.73 µM) in series [23], 6 µg/mL (≈ 13.5 µM) in series [24] and 3 µg/mL (≈ 6.73 µM) in series [25]. For the same compound, the Survival in series [5] is under 1%. For the same compound, the concentration for 50% haemolysis (HC50) at 1 h in series [6] turned out to be 1640 µg/mL. For the same compound, the selectivity ratio in series [7] is over 1000; in [9], over 25. The half-inhibitory concentration (IC50) at 24 h in [8] was over 25 µg/mL; in series [11], over 25 µg/mL; in [12], 15.4 µg/mL (≈ 34.6 µM). The IC50 in [10] and in series [13] was over 25 µg/mL in each case. Also, the outcome in [26] was inactive.
With `COc1cccc(OC)c1C(=O)N[C@@H]1C(=O)N2[C@@H]1SC(C)(C)[C@@H]2C(=O)O` [METHICILLIN], the minimum inhibitory concentration (MIC) turned out to be 1 µg/mL (≈ 2.63 µM) in series [1]; 4 µg/mL (≈ 10.5 µM) in series [3]; 2 µg/mL (≈ 5.26 µM) in [4]; 16 µg/mL (≈ 42.1 µM) in series [14]; 8 µg/mL (≈ 21 µM) in series [15]; 16 µg/mL (≈ 42.1 µM) in [16]. The MIC in series [17] was 16 µg/mL (≈ 42.1 µM); in [18], 16 µg/mL (≈ 42.1 µM); in series [19] it was 8 µg/mL (≈ 21 µM); in series [20] it was over 16 µg/mL; in series [21] it was 16 µg/mL (≈ 42.1 µM); in [22] it was over 16 µg/mL. In addition, the minimal inhibitory concentration (MIC) in [23] was 16 µg/mL (≈ 42.1 µM); in series [24], 8 µg/mL (≈ 21 µM); in [25], 8 µg/mL (≈ 21 µM). Also, the result in series [27], in [28] and in [29] was inactive.
Consider `O=C(CCC(F)(F)F)N(Cc1cc2ccccc2s1)c1cc(-c2ccc(F)cc2)ccc1O`, for which the minimum inhibitory concentration (MIC) came to 1 µg/mL (≈ 2.11 µM) in series [1]; 1 µg/mL (≈ 2.11 µM) in series [2]; 16 µg/mL (≈ 33.8 µM) in series [3]; 8 µg/mL (≈ 16.9 µM) in [4]; 6 µg/mL (≈ 12.7 µM) in series [14]; 2 µg/mL (≈ 4.22 µM) in series [15]. Besides, the minimum inhibitory concentration (MIC) in series [16] is 6 µg/mL (≈ 12.7 µM); in [17] it was 3 µg/mL (≈ 6.34 µM); in series [18] it was 2 µg/mL (≈ 4.22 µM); in [19], 6 µg/mL (≈ 12.7 µM); in [20], 6 µg/mL (≈ 12.7 µM); in series [21], 2 µg/mL (≈ 4.22 µM). Moreover, the MIC in series [22], in series [23], in series [24] and in [25] was 2 µg/mL (≈ 4.22 µM) throughout. Also, the Survival in series [5] is given as under 1%. Further, in [6], the HC50 at 1 h was 2150 µg/mL. For the same compound, the selectivity ratio is over 1000 in [7] and 18 in [9]. For the same compound, the half-maximal inhibitory concentration (IC50) at 24 h came out at 17.3 µg/mL (≈ 36.6 µM) in series [8], 14.7 µg/mL (≈ 31 µM) in series [11] and 20.7 µg/mL (≈ 43.8 µM) in [12]. Further, the 50% inhibitory concentration (IC50) turned out to be 16.7 µg/mL (≈ 35.3 µM) in series [10] and 10 µg/mL (≈ 21.1 µM) in series [13]. In addition, the result in series [26] was inactive.
